{"source": "patent US11154616B2", "about": "“Methods of treating locally advanced or metastatic breast cancers using PD-1 axis binding antagonists and taxanes” (Genentech, Inc., priority 2015, dated 2021)", "origin": "cited, not measured here", "tested_on": "mTNBC", "settings": "monotherapy in mTNBC"}
{"substance": "MPDL3280A: humanized monoclonal anti-PD-L1 antibody that inhibits the binding of PD-L1 to PD-1", "values": [{"measurement": "clinical response as a monotherapy", "value": "durable responses"}]}
